Patent publication US11845741B2, “Pilocarpine ionic liquids for treatment of glaucoma” (VIRGINIA COMMONWEALTH UNIVERSITY INTELLECTUAL PROPERTY …, priority 2020, dated 2023)
Entries after “also recorded” stand apart in the source; their conditions may differ. Counter-ions that a name gives are not always drawn.

Assays:
[1] = Ex vivo corneal permeation, Franz diffusion cell; format: in vitro ADME; details: rabbit cornea; for amount permeated through the cornea within 4 h: 200 μL of 27 mM in donor chamber
Experimental: Ex vivo corneal permeation studies. Corneas were extracted from fresh rabbit eyes and mounted immediately in a Franz diffusion cell system with the epithelial surface facing the donor chamber. In each test, Pilo, PiloHCl, or [Pilo-OEG]Cl (200 μL, 27 mM) was loaded to the donor chamber. The receiver chamber was filled with 5 mL of PBS. At pre-determined time points up to 4 h, an aliquot of 1 mL from the receiver chamber was collected via syringe and analyzed with UV-Vis spectrophotometer (U-3010, Hitachi). Fresh PBS (1 mL) was added to the receiver chamber following each sampling. All the experiments were conducted in triplicate. The permeability coefficient, P, was then determined based on the following equation: [formula] where dQ/dt is the steady-state slope of a cumulative flux curve (in this study, the data in 1 h is selected for dQ/dt calculation), C is drug concentration in the donor chamber, and A is the effective cross-sectional area (0.629 cm^2) available for diffusion.^22

[2] = Stability test: pH of aqueous solutions over 24 h; format: physicochemical; details: for pH of freshly prepared solution: 0 h
Experimental: (§1) Stability test. Fresh water solutions of Pilo, PiloHCl, and [Pilo-OEG]Cl (5 mM) were prepared and their pH at 0, 0.75, 4, 8, and 24 h was measured with a pH meter ([…]). The samples at 0 and 24 h were further analyzed with LC-MS/MS using a Surveyor Plus HPLC System and triple stage quadrupole (TSQ) Quantum Ultra Mass Spectrometer (Thermo Fisher Scientific, USA) equipped with an auto-sampler and electrospray ionization (ESI) source. Separation was carried out on an Hypersil Gold column (150 mm×2.1 mm, […], Thermo) maintained at 25° C. The mobile phase consisted of 0.1% (v/v) formic acid water phase (A) and methanol phase (B). The gradient elution program was as follows: 95% of A at 0-5 min, and back to 95% of A at 23.1 min, re-conditioning of the column for 8 min. The flow rate was 0.2 mL/min A capillary temperature of 350° C., spray voltage of 4500 V, sheath gas of 30 arb, and auxiliary gas of 10 arb were maintained as the optimal instrument conditions. Unit resolution was used for Q1 (FWHM 0.7). Nitrogen was used as both sheath gas and auxiliary gas.

[3] = system: HCE-2 human corneal epithelial cells; experiment: Cytotoxicity assessment, WST-1 assay; format: cell-based; details: HCE-2 cells, 24 h, 1 mM to 50 mM
Experimental: (§2) Cytotoxicity assessment. HCE-2 human corneal epithelial cells were seeded in a 96-well plate at a density of 1×10^4 cell/well. After attachment, the cells were incubated with various concentrations of Pilo, PiloHCl and [Pilo-OEG]Cl for 24 h and cell viability was determined by using WST-1 assay. The medium for HCE-2 (ATCC CRL-11135, epithelial Adenovirus 12-SV40 hybrid transformed) was Keratinocyte-serum free medium supplemented with 0.05 mg/mL of bovine pituitary extract (BPE), 5 ng/mL of epidermal growth factor (EGF), 500 ng/mL of hydrocortisone and 0.005 mg/mL of insulin. The cytotoxicity of Pilo and [Pilo-OEG]Cl to NIH3T3 fibroblast cells was also tested.

[4] = Stability test: LC-MS/MS analysis of aqueous solutions at 0 and 24 h; format: physicochemical; details: water solution, 5 mM
Experimental: as §1

[5] = literature value; cited from earlier work
[6] = system: intraocular pressure (IOP); experiment: In vivo IOP-lowering efficacy assessment; design: species or system normotensive adult Brown Norway female rats; details: for IOP reduction after second dose: second topical dose applied 4 hours after the first; for average IOP reduction after first dose: topical 2×5 μL, 82 mM pilocarpine equivalent, 45 min post-administration, n=4; for time of highest IOP reduction post-administration: topical instillation
Experimental: In vivo efficacy assessment. Normotensive adult Brown Norway female rats (Charles River Laboratories), 8 months old, were used in this work. The rats were given free access to food and water, 12 hours light and dark cycle in a temperature-controlled room (18-24° C.). The procedures conducted were approval by Virginia Commonwealth University IACUC. Rats were randomly grouped to two groups of four (n=4). The right eye of each rat was instilled with PiloHCl or [Pilo-OEG]Cl PBS solution (2×5 μL, 82 mM pilocarpine equivalent), one dose at 8:00 am and the second dose at 12:00 pm. The IOPs of both eyes were measured at 8:00 am (before dosing), 8:45 am, 12:00 pm (before the second dosing), 12:45 pm, and 16:00 pm using Icare TONOLAB tonometer TV02.

[7] = Cytotoxicity assessment, WST-1 assay; format: cell-based, human; details: human, HCE-2 human corneal epithelial cells; HCE-2 cells, 24 h incubation, WST-1
Experimental: as §2

With `CC[C@@H]1C(=O)OC[C@@H]1Cc1cncn1C` [Pilo, Pilocarpine] the “amount permeated through the cornea within 4 h” value ([1]; 4 h) was 27.8±14.7%, the permeability coefficient ([1]; dQ/dt from data in 1 h) was 6.6 ×10⁻⁶ cm/s and the “pH of freshly prepared solution” value ([2]; water solution, 5 mM) was 9.2. The “pH of solution at 8 h” value ([2]; water solution, 5 mM, 8 h) was 8.7, the “pH of solution at 24 h” value ([2]; water solution, 5 mM, 24 h) was 8.2 and the pKa ([2]; water solution, calculated/estimated from pH at 0 h, 5 mM in water, read-out: dissociation constant (pKa)) was 7.28. For the same compound, the cytotoxicity / cytocompatibility [3] was “cytocompatible”, the “degradation products formed in solution (LC-MS)” value (from here on “degradation products formed”) [4] was “isopilocarpine formed (eluted at 2.02 min, m/z=209.06) and further hydrolyzed into acids” and the “pKa reported in the Merck Index” value [5] was 7.15.
With `CC[C@@H]1C(=O)OC[C@@H]1Cc1c[n+](CCOCCOCCO)cn1C.[Cl-]` [[Pilo-OEG]Cl] the “permeability coefficient, fold higher than Pilo” value [1] was 1 fold, the “permeability coefficient, fold higher than PiloHCl” value [1] was 8 fold and the “amount permeated through the cornea within 4 h” value ([1]; 4 h) was 51.6±8.1%. For the same compound, the “amount permeated, fold higher than PiloHCl” value ([1]; 4 h) was 5 fold, the Papp at 1 h, 27 mM ([1]; rabbit, dQ/dt from data in 1 h, read-out: permeability coefficient) was 13 ×10⁻⁶ cm/s and the “IOP reduction, fold versus PiloHCl” value ([6]; first dose, statistical significance not established) was 2 fold. For the same compound, the “IOP reduction after second dose” value [6] was 2.625 mmHg, the “average IOP reduction after first dose” value [6] was 2.75 mmHg and the “time of highest IOP reduction post-administration” value [6] was 45 min. For the same compound, the “pH of freshly prepared solution” value ([2]; water solution, 5 mM) was 7.3, the “pH stability of aqueous solution within 24 h” value ([2]; water solution, 5 mM, 24 h) was “remain relatively stable” and the cytotoxicity / cytocompatibility [3] was “did not show apparent toxicity; also recorded: cytocompatible”. The “degradation products formed” value [4] was “neither isopilocarpine or pilocarpine and isopilocarpine acids formed”.
In the case of `CC[C@@H]1C(=O)OC[C@@H]1Cc1cncn1C` [PiloHCl, pilocarpine hydrochloride], the “amount permeated through the cornea within 4 h” value ([1]; 4 h, hydrochloride) is reported as 8.1±1.8%, the permeability coefficient ([1]; dQ/dt from data in 1 h, hydrochloride) is reported as 1.5 ×10⁻⁶ cm/s and the “IOP reduction after second dose” value [6] is reported as roughly 1 mmHg. For the same compound, the “average IOP reduction after first dose” value [6] was 1.25 mmHg, the “time of highest IOP reduction post-administration” value [6] was 45 min and the “dissociation constant (pKa)” value ([2]; calculated/estimated from pH at 0 h, 5 mM in water, hydrochloride) was 8.34. The “pH of freshly prepared solution” value ([2]; water solution, 5 mM, hydrochloride) was 5.3, the “pH stability of aqueous solution within 24 h” value ([2]; water solution, 5 mM, 24 h) was “remain relatively stable” and the cytotoxicity / cytocompatibility ([3]; hydrochloride) was “strong dose-dependent cytotoxicity”. The IC50 at 24 h [7] was 25 mM and the “degradation products formed” value ([4]; hydrochloride) was “Isopilocarpine also formed”.
